In US8809342B2, “Glucagon receptor modulators” (Pfizer Inc., priority 2010, dated 2014) one finds Kb data, which are given here for 23 compounds.

In the test the target is T1, human glucagon receptor (Homo sapiens, UniProt P47871).
T1 construct: expressed in transfected cells; host or cells: CHO-K1 cells, stably transfected
T1 sequence (P47871 26-477): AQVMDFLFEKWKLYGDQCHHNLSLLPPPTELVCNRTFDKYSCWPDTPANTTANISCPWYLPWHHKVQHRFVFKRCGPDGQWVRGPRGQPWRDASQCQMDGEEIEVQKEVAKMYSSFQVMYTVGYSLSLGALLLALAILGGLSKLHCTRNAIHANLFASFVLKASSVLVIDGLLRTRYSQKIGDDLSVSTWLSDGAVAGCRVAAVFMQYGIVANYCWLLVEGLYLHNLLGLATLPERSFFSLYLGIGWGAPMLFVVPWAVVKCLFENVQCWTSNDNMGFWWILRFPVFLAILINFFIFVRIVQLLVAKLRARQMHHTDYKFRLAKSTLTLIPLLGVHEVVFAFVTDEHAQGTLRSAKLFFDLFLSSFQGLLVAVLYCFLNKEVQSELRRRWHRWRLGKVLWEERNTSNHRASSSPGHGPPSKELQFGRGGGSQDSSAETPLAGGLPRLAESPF
Description: Glucagon cAMP assay (Cisbio cAMP detection). The class given is cell-based. The protocol:
The Cisbio cAMP detection assay is used to determine the ability of punitive glucagon antagonist to block glucagon induced cAMP production. Potential glucagon antagonists are re-suspended and diluted in 100% DMSO. Prior to use in the Glucagon cAMP assay 100×DMSO compound stocks are diluted 20× with DMEM-F12 media (Invitrogen) containing either 0.1% or 4% BSA. 2 uls of 5× compound stocks are spotted into the appropriate wells of low binding white solid bottom 384 well plates (Corning). 2 uls of 5% DMSO or known glucagon antagonist are added to each plate to define the assay window. CHOK1 cells stably transfected with the human glucagon receptor are removed from culture flasks with cell dissociation buffer. Cell pellets are re-suspended, at a concentration of 8.3e^5 cells/ml in DMEM-F12 with or without 4% BSA and 200 uM IBMX. 6 uls of cell suspensions are added to the assay plates. Plates are incubated for 20 min at room temperature prior to the addition of a 100 pM challenge dose of glucagon. On a separate plate glucagon dose response curves are run to determine the EC50 of glucagon. After a 30 min room temperature incubation the reaction is terminated by the addition of lysis buffer containing the cAMP detection reagents. Plates are incubated for an additional 60 min at room temperature prior to being read on the Perkin Elmer fluorescent plate reader. Raw is converted to nM of cAMP produced based on a cAMP standard curve. Converted data is then analyzed using the Pfizer data analysis program. IC50 values are determined from the generated sigmoidal dose response curves. Kb values are the calculated using a modified Cheng-Prusoff equation.
As to `CC(C)CC(Nc1ccc(C(=O)NCCC(=O)O)cn1)c1ccc(-c2ccc(C(F)(F)F)cc2)cc1` (racemic) [Example 1.2, (+/−)-3-(6-(3-methyl-1-(4′-(trifluoromethyl)biphenyl-4-yl)butylamino)nicotinamido)propanoic acid], the Kb came to 140 nM. For `CC(C)CC(Nc1ncc(C(=O)NCCC(=O)O)cn1)c1ccc(-c2ccc(C(F)(F)F)cc2)cc1` (racemic) [Example 1.4, (+/−)-3-(2-(3-methyl-1-(4′-(trifluoromethyl)biphenyl-4-yl)butylamino)pyrimidine-5-carboxamido)propanoic acid], the Kb is 560 nM. Compound `CCCC(Nc1ccc(C(=O)NCCC(=O)O)cn1)c1ccc(-c2ccc(C(F)(F)F)cc2)cc1` (racemic) [Example 1.7, (+/−)-3-(6-(1-(4′-(trifluoromethyl)biphenyl-4-yl)butylamino)nicotinamido)propanoic acid] displayed a Kb of 170 nM.

`CC(C)C(Nc1ccc(C(=O)NCCC(=O)O)cn1)c1ccc(-c2ccc(C(F)(F)F)cc2)cc1` (racemic) [Example 1.10, (+/−)-3-(6-(2-methyl-1-(4′-(trifluoromethyl)biphenyl-4-yl)propylamino)nicotinamido)propanoic acid] yielded a Kb of 180 nM.

As for `CCC(Nc1ccc(C(=O)NCCC(=O)O)cn1)c1ccc(-c2ccc(C(F)(F)F)cc2)cc1` (racemic) [Example 1.11], the Kb is 280 nM. The compound `CC(C)CC(Nc1cnc(C(=O)NCCC(=O)O)cn1)c1ccc(-c2ccc(C(F)(F)F)cc2)cc1` (racemic) [Example 1.16, (+/−)-3-(5-(3-methyl-1-(4′-(trifluoromethyl)biphenyl-4-yl)butylamino)pyrazine-2-carboxamido)propanoic acid] had a Kb of 150 nM. Next, `CC(C)CC(Nc1ncc(C(=O)Nc2nnn[nH]2)cn1)c1ccc(-c2ccc(C(F)(F)F)cc2)cc1` (racemic) [Example 1.19, (+/−)-2-(3-methyl-1-(4′-(trifluoromethyl)biphenyl-4-yl)butylamino)-N-(1H-tetrazol-5-yl)pyrimidine-5-carboxamide]: 890 nM; `CC(C)CC(Nc1ccc(C(=O)Nc2nn[nH]n2)cn1)c1ccc(-c2ccc(C(F)(F)F)cc2)cc1` (racemic) [Example 1.20]: 1000 nM. Compound `CC(C)CC(Nc1ccc(C(=O)NCc2nn[nH]n2)cn1)c1ccc(-c2ccc(C(F)(F)F)cc2)cc1` (racemic) [Example 1.21, (+/−)-N-((2H-tetrazol-5-yl)methyl)-6-(3-methyl-1-(4′-(trifluoromethyl)biphenyl-4-yl)butylamino)nicotinamide] registered a Kb of 520 nM. Next, `CC(C)CC(Nc1ccc(C(=O)NCCS(=O)(=O)O)cn1)c1ccc(-c2ccc(C(F)(F)F)cc2)cc1` (racemic) [Example 1.22, (+/−)-2-(6-(3-methyl-1-(4′-(trifluoromethyl)biphenyl-4-yl)butylamino)nicotinamido) ethanesulfonic acid]: 6700 nM; `CC(C)CC(Nc1ccc(C(=O)N(C)CCC(=O)O)cn1)c1ccc(-c2ccc(C(F)(F)F)cc2)cc1` (racemic) [Example 1.23, (+/−)-3-(N-methyl-6-(3-methyl-1-(4′-(trifluoromethyl)biphenyl-4-yl)butylamino)nicotinamido)propanoic acid]: 300 nM; `CC(C)CC(Nc1ccc(C(=O)NC[C@@H](O)C(=O)O)cn1)c1ccc(-c2ccc(C(F)(F)F)cc2)cc1` (mixture of isomers) [Example 1.24, (+/−)-(2R)-2-hydroxy-3-(6-(3-methyl-1-(4′-(trifluoromethyl)biphenyl-4-yl)butylamino)nicotinamido)propanoic acid]: 1600 nM. Regarding `Cc1cc(C(CC(C)C)Nc2ccc(C(=O)NCCC(=O)O)cn2)ccc1-c1ccc(C(F)(F)F)cc1` (racemic) [Example 1.25, (+/−)-3-(6-(3-methyl-1-(2-methyl-4′-(trifluoromethyl)biphenyl-4-yl)butylamino)nicotinamido)propanoic acid], the Kb is 95 nM.

Turning to `Cc1cc(C(CC(C)C)Nc2ncc(C(=O)NCCC(=O)O)cn2)ccc1-c1ccc(C(F)(F)F)cc1` (racemic) [Example 1.26, (+/−)-3-(2-(3-methyl-1-(2-methyl-4′-(trifluoromethyl)biphenyl-4-yl)butylamino)pyrimidine-5-carboxamido)propanoic acid], the Kb is 390 nM.

`Cc1cc(C(CC(C)C)Nc2ncc(C(=O)NCCC(=O)O)cn2)cc(C)c1-c1ccc(C(F)(F)F)cc1` (racemic) [Example 1.27, (+/−)-3-(2-(1-(2,6-dimethyl-4′-(trifluoromethyl)biphenyl-4-yl)-3-methylbutylamino)pyrimidine-5-carboxamido)propanoic acid] returned a Kb of 260 nM.

In turn, `Cc1cc(C(CC(C)C)Nc2ccc(C(=O)NCCC(=O)O)cn2)cc(C)c1-c1ccc(C(F)(F)F)cc1` (racemic) [Example 1.28, (+/−)-3-(6-(1-(2,6-dimethyl-4′-(trifluoromethyl)biphenyl-4-yl)-3-methylbutylamino)nicotinamido)propanoic acid] came in with a Kb of 83 nM. Then `CC(C)CC(Nc1ccc(C(=O)NCCC(=O)O)cn1)c1ccc(-c2ccc(C(F)(F)F)cc2)nc1` (racemic) [Example 1.29, (+/−)-3-(6-(3-methyl-1-(6-(4-(trifluoromethyl)phenyl)pyridin-3-yl)butylamino)nicotinamido)propanoic acid], with 160 nM. Compound `CCCC(Nc1cnc(C(=O)NCCC(=O)O)cn1)c1ccc(-c2ccc(C(F)(F)F)cc2)cc1` (racemic) [Example 1.30, (+/−)-3-(5-(1-(4′-(trifluoromethyl)biphenyl-4-yl)butylamino)pyrazine-2-carboxamido)propanoic acid] returned a Kb of 540 nM.

In turn, `CCC(Nc1cnc(C(=O)NCCC(=O)O)cn1)c1ccc(-c2ccc(C(F)(F)F)cc2)cc1` (racemic) [Example 1.31, (+/−)-3-(5-(1-(4′-(trifluoromethyl)biphenyl-4-yl)propylamino)pyrazine-2-carboxamido)propanoic acid] had a Kb of 540 nM. With `O=C(O)CCNC(=O)c1ccc(NC(c2ccc(-c3ccc(C(F)(F)F)cc3)cc2)C2CCC2)nc1` (racemic) [Example 1.32, (+/−)-3-(6-(cyclobutyl(4′-(trifluoromethyl)biphenyl-4-yl)methylamino)nicotinamido)propanoic acid], the Kb is 610 nM. Next, `CC(C)(C)CC(Nc1ccc(C(=O)NCCC(=O)O)cn1)c1ccc(-c2ccc(C(F)(F)F)cc2)cc1` (racemic) [Example 1.33, (+/−)-3-(6-(3,3-dimethyl-1-(4′-(trifluoromethyl)biphenyl-4-yl)butylamino)nicotinamido)propanoic acid]: 120 nM. Next, `O=C(O)CCNC(=O)c1ccc(NC(c2ccc(-c3ccc(C(F)(F)F)cc3)cc2)C2CC2)nc1` (racemic) [Example 1.34, (+/−)-3-(6-(cyclopropyl(4′-(trifluoromethyl)biphenyl-4-yl)methylamino)nicotinamido)propanoic acid]: 550 nM; `O=C(O)CCNC(=O)c1ccc(NC(c2ccc(-c3ccc(C(F)(F)F)cc3)cc2)C2CCCC2)nc1` (racemic) [Example 1.35, (+/−)-3-(6-(cyclopentyl(4′-(trifluoromethyl)biphenyl-4-yl)methylamino)nicotinamido)propanoic acid]: 50 nM.
